{"source": "the NIST ThermoML archive (doi:10.1016/j.fluid.2007.07.013)", "conditions": "Liquid", "note": "± gives the expanded uncertainty stated by the source."}
{"smiles": "CCSC", "note": "[2-thiabutane]", "values": [{"measurement": "vapor or sublimation pressure", "setting": "247.76 K", "result": 1, "unit": "kPa"}, {"measurement": "vapor or sublimation pressure", "setting": "272.96 K", "result": 6, "unit": "kPa"}, {"measurement": "vapor or sublimation pressure", "setting": "293.23 K", "result": "17 ± 12", "unit": "kPa"}, {"measurement": "vapor or sublimation pressure", "setting": "293.41 K", "result": "17 ± 12", "unit": "kPa"}, {"measurement": "vapor or sublimation pressure", "setting": "313.33 K", "result": "40 ± 12", "unit": "kPa"}, {"measurement": "vapor or sublimation pressure", "setting": "313.35 K", "result": "40 ± 12", "unit": "kPa"}]}
{"smiles": "CSC", "note": "[2-thiapropane]", "values": [{"measurement": "vapor or sublimation pressure", "setting": "252.89 K", "result": "8 ± 12", "unit": "kPa"}, {"measurement": "vapor or sublimation pressure", "setting": "253.06 K", "result": "8 ± 12", "unit": "kPa"}, {"measurement": "vapor or sublimation pressure", "setting": "272.76 K", "result": "22 ± 12", "unit": "kPa"}, {"measurement": "vapor or sublimation pressure", "setting": "278.46 K", "result": "29 ± 12", "unit": "kPa"}, {"measurement": "vapor or sublimation pressure", "setting": "293.16 K", "result": "53 ± 12", "unit": "kPa"}, {"measurement": "vapor or sublimation pressure", "setting": "293.43 K", "result": "54 ± 12", "unit": "kPa"}, {"measurement": "vapor or sublimation pressure", "setting": "313.3 K", "result": "112 ± 12", "unit": "kPa"}, {"measurement": "vapor or sublimation pressure", "setting": "313.43 K", "result": "112 ± 12", "unit": "kPa"}]}
{"smiles": "S=C=S", "note": "[carbon disulfide]", "values": [{"measurement": "vapor or sublimation pressure", "setting": "273.08 K", "result": "17 ± 12", "unit": "kPa"}, {"measurement": "vapor or sublimation pressure", "setting": "298.4 K", "result": "49 ± 12", "unit": "kPa"}, {"measurement": "vapor or sublimation pressure", "setting": "323.5 K", "result": "116 ± 12", "unit": "kPa"}, {"measurement": "vapor or sublimation pressure", "setting": "348.45 K", "result": "240 ± 12", "unit": "kPa"}]}
{"smiles": "CCS", "note": "[ethanethiol]", "values": [{"measurement": "vapor or sublimation pressure", "setting": "272.94 K", "result": "25 ± 12", "unit": "kPa"}, {"measurement": "vapor or sublimation pressure", "setting": "293.36 K", "result": "59 ± 12", "unit": "kPa"}, {"measurement": "vapor or sublimation pressure", "setting": "313.41 K", "result": "121 ± 12", "unit": "kPa"}]}
{"smiles": "S", "note": "[hydrogen sulfide]", "values": [{"measurement": "vapor or sublimation pressure", "setting": "273.08 K", "result": "1033 ± 17", "unit": "kPa"}, {"measurement": "vapor or sublimation pressure", "setting": "298.4 K", "result": "2024 ± 26", "unit": "kPa"}, {"measurement": "vapor or sublimation pressure", "setting": "323.5 K", "result": "3564 ± 44", "unit": "kPa"}, {"measurement": "vapor or sublimation pressure", "setting": "348.45 K", "result": "5812 ± 72", "unit": "kPa"}]}
{"smiles": "CS", "note": "[methanethiol]", "values": [{"measurement": "vapor or sublimation pressure", "setting": "243.19 K", "result": "20 ± 12", "unit": "kPa"}, {"measurement": "vapor or sublimation pressure", "setting": "258 K", "result": "42 ± 12", "unit": "kPa"}, {"measurement": "vapor or sublimation pressure", "setting": "272.98 K", "result": "80 ± 12", "unit": "kPa"}, {"measurement": "vapor or sublimation pressure", "setting": "293.35 K", "result": "170 ± 12", "unit": "kPa"}, {"measurement": "vapor or sublimation pressure", "setting": "298.23 K", "result": "200 ± 12", "unit": "kPa"}]}
